Tests used:
[1] = target: T1, human k-opioid receptor (kOR) (Homo sapiens, UniProt P41145); test: Human k-opioid (KOP) receptor (agonist radioligand [3H]U-69593) binding assay, transfected RBL cell membranes; conditions: for inhibition at 1 µM: read-out: KOR % Inh. @ 1 uM
T1 construct: expressed in transfected cells; host or cells: RBL cells (membrane homogenates)
Protocol: Human k-Opioid (KOP) Receptor (Agonist Radioligand) Binding Assay
Purpose: Evaluation of the affinity of compounds for the human k-opioid receptor in transfected RBL cells determined in a radioligand binding assay.
Experimental protocol: Cell membrane homogenates (about 80 μg protein) are incubated for 60 min at 22° C. with 0.5 nM [3H]U-69593 in the absence or presence of the test compound in a buffer containing 50 mM Tris-HCl (pH 7.4), 10 mM MgCl2 and 1 mM EDTA. Nonspecific binding is determined in the presence of 10 μM naloxone. Following incubation, the samples are filtered rapidly under vacuum through glass fiber filters ([…], Packard) presoaked with 0.3% PEI and rinsed several times with ice-cold 50 mM Tris-HCl using a 96-sample cell harvester (Unifilter, Packard). The filters are dried then counted for radioactivity in a scintillation counter (Topcount, Packard) using a scintillation cocktail (Microscint 0, Packard). The results are expressed as a percent inhibition of the control radioligand specific binding. The standard reference compound is U-50488, which is tested in each experiment at several concentrations to obtain a competition curve from which its IC50 is calculated.

[2] = target: T2, human orexin-2 receptor (OX2R) (Homo sapiens, UniProt O43614); test: In vitro orexin antagonism assay: intracellular calcium measurement (FLIPR), orexin-A 3 nM as agonist; format: cell-based; conditions: for IC50: first value of IC50/Kb cell; for Kb: second value of IC50/Kb cell; for inhibition at 1 µM: read-out: OX2R, % Inh. @ 1 uM
T2 construct: expressed in transfected cells; host or cells: CHO cells (G418 selection)
T2 sequence (O43614 1-444): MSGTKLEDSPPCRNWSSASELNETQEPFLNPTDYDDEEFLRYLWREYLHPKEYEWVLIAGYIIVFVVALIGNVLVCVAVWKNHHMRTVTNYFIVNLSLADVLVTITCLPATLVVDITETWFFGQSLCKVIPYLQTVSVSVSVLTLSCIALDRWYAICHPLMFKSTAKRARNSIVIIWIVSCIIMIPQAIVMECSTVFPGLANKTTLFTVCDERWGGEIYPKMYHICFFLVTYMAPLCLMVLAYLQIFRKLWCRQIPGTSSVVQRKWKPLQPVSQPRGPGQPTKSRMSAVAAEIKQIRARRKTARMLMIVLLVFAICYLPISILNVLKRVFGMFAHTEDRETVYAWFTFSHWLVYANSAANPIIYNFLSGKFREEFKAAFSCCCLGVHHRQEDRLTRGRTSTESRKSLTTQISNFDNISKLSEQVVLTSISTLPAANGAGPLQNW
Procedure, shortened: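 Fluorescence peak on 3 nM orexin-A challenge, read by FLIPR and compared with vehicle, yields IC50 (geometric mean when repeated; may be normalized to an on-plate reference). Antagonists were added 120 min beforehand to fluo-4-loaded recombinant CHO cells expressing human OX1R or OX2R.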

[3] = target: T3, Orexin type 1 (OX1R) receptor (Homo sapiens, UniProt O43613); test: as above; format: cell-based; conditions: for IC50: first value of IC50/Kb cell; for Kb: second value of IC50/Kb cell; for inhibition at 1 µM: read-out: OX1R, % Inh. @ 1 uM
T3 construct: expressed in transfected cells; host or cells: CHO cells (G418 selection)
T3 sequence (O43613 1-425): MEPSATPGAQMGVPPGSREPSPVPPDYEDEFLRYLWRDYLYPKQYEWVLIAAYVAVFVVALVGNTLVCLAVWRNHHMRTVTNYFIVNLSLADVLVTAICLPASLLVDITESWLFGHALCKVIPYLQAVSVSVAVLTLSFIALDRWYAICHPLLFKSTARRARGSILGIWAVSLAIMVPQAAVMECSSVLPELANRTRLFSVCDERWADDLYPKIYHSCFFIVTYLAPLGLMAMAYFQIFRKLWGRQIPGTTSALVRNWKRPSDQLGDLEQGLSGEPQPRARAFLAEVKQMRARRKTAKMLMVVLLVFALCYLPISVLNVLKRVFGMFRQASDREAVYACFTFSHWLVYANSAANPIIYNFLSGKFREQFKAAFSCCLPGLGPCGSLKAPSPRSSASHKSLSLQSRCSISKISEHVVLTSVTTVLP
Procedure, shortened: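 CHO cells expressing the human orexin receptor were loaded with 3 μM fluo-4 AM plus 5 mM probenecid, then exposed to antagonist for 120 min before 3 nM orexin-A (final) was added on a FLIPR.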

T1 sequence (P41145 whole entry): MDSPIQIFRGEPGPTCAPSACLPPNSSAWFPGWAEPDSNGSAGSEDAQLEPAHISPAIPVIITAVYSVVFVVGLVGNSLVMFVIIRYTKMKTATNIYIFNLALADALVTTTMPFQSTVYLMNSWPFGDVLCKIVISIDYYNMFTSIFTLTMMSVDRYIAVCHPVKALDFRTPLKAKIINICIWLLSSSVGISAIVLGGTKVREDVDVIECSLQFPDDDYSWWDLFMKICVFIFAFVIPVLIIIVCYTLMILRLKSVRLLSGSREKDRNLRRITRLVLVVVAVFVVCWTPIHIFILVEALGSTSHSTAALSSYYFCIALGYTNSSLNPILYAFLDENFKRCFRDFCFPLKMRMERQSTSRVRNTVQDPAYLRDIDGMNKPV

IC50 [3] [nM]	Kb [3] [nM]	inhibition at 1 µM [2] [%]	inhibition at 1 µM [3] [%]	Compound	further results
6	1	88	100	O=C(c1nn2c(c1-c1ccccc1)COCC2)N1CCC[C@H]1Cn1ccc(-c2ccccc2)n1 [Example 129]	inhibition at 1 µM [1]: 7%; IC50 [2]: 240 nM; Kb [2]: 41 nM
520	110	5	83	C[C@@]1(Cn2ccc(-c3ccccn3)n2)CCCN1C(=O)c1nn2c(c1-c1ccccc1)COCC2 [Example 154]	inhibition at 1 µM [1]: 23%
5	1	33	100	O=C(c1nn2c(c1-c1ccccc1)COCC2)N1CCC[C@H]1COc1ccc(C(F)(F)F)cn1 [Example 141]	inhibition at 1 µM [1]: 40%
5	0.9	56	100	O=C(c1nn2ccccc2c1-c1ccccn1)N1CCC[C@H]1Cn1ccc(-c2ccccn2)n1 [Example 174]	inhibition at 1 µM [1]: 0%
9	1	74	99	O=C(c1nn2cccnc2c1-c1ccccc1)N1CCC[C@H]1Cn1ccc(-c2ccccc2)n1 [Example 136]	inhibition at 1 µM [1]: 26%; IC50 [2]: 3 nM; Kb [2]: 0.5 nM
49	10	11	100	O=C(c1c(-c2ncccn2)nn2ccccc12)N1CCC[C@H]1COc1ccc(C(F)(F)F)cn1 [Example 191]	–
–	–	12	55	O=C(c1nn2c(c1-c1ccccn1)CCOC2)N1CCC[C@H]1Cc1nc(-c2ccc(F)cn2)no1 [Example 222]	–
17	4	78	98	O=C(c1c(-c2ncccn2)nn2ccccc12)N1CCC[C@H]1Cn1ccc(-c2ccc(F)cn2)n1 [Example 203]	–
18	4	43	94	O=C(c1nn2cccnc2c1-c1ccccn1)N1CCC[C@H]1Cc1nc(-c2ccc(F)cn2)no1 [Example 189]	–
–	–	6	50	C[C@@]1(COc2cnc(C(F)(F)F)cn2)CCCN1C(=O)c1nn2c(c1-c1ccccc1)OCCC2 [Example 165]	–
160	34	24	70	O=C(c1nc2n(c1-c1ccccn1)CCOC2)N1CCC[C@H]1Cn1ccc(-c2ccc(F)cn2)n1 [Example 216]	–
16	3	61	94	O=C(c1nn2cccnc2c1-c1ccccn1)N1CCC[C@H]1Cn1ccc(-c2ccccn2)n1 [Example 185]	–
120	25	74	79	O=C(c1nc2n(c1-c1ccccn1)CCOC2)N1CCC[C@H]1Cn1cc(-c2ccc(F)cn2)cn1 [Example 218]	–
305	64	20	84	C[C@@]1(COc2cnc(C(F)(F)F)cn2)CCCN1C(=O)c1c(-c2ccccn2)nn2ccccc12 [Example 164]	–
9	2	19	100	O=C(c1nn2c(c1-c1ccccn1)OCCC2)N1CCC[C@H]1COc1ccc(C(F)(F)F)cn1 [Example 201]	–
8	2	12	99	O=C(c1nc2ccccn2c1-c1ccccn1)N1CCC[C@H]1COc1ccc(C(F)(F)F)cn1 [Example 179]	–
–	–	66	53	O=C(c1c(-c2ncccn2)nn2ccccc12)N1CCC[C@H]1Cn1cc(-c2ccc(F)cn2)cn1 [Example 204]	–

The remaining lines, values behind:

Compound	IC50 [3] [nM]	Kb [3] [nM]	inhibition at 1 µM [2] [%]	inhibition at 1 µM [3] [%]	further results
O=C(c1c(-c2ccc(F)cc2)nn2ccccc12)N1CCC[C@H]1Cn1ccc(-c2ccc(F)cc2)n1 [Example 55]	5	1	–	–	KOR % Inh. @ 1 uM ([1]; @ 1 uM): 66%; IC50 ([1]; first value of IC50/Ki cell): 480 nM; Ki ([1]; second value of IC50/Ki cell): 260 nM; OX2R, % Inh. @ 1 uM [2]: 93%; IC50 [2]: 33 nM; Kb [2]: 5 nM; OX1R, % Inh. @ 1 uM [3]: 100%
O=C(c1c(-c2ccccc2F)nn2c1COCC2)N1CCC[C@H]1Cn1cc(-c2ccccn2)cn1 [Example 71]	–	–	40	14	–
O=C(c1nn2c(c1-c1ccccn1)COCC2)N1CCC[C@H]1Cn1ccc(-c2ccc(F)cn2)n1 [Example 196]	24	5	–	–	OX2R, % Inh. @ 1 uM [2]: 39%; OX1R, % Inh. @ 1 uM [3]: 99%
O=C(c1c(-c2ccccc2)nn2c1COCC2)N1CCC[C@H]1Cc1nc(-c2ccc(F)cn2)no1 [Example 116]	–	–	19	10	–
O=C(c1c(-c2ncccn2)nn2ccccc12)N1C2CCC1(COc1ccc(C(F)(F)F)cn1)CC2 [Example 161]	–	–	6	44	–
O=C(c1c(-c2ccccc2)nc2cc(C(F)(F)F)ccn12)N1[C@H](Cn2ccc(-c3ccc(F)cc3)n2)C[C@@H]2C[C@@H]21 [Example 98]	–	–	35	48	–
O=C(c1c(-c2ccccc2)nc2ncccn12)N1CCC[C@H]1COc1ccc(C(F)(F)F)cn1 [Example 48]	–	–	-1.1	18.9	–
O=C(c1nn2ccccc2c1-c1ccccc1)N1CCC[C@H]1CNc1ccc(C(F)(F)F)cn1 [Example 29]	5	1	84.1	99.5	IC50 [2]: 35 nM; Kb [2]: 5 nM
O=C(c1c(-c2ccccc2)nc2ccc(F)cn12)N1CCC[C@H]1Cc1nc(-c2ccc(F)cn2)no1 [Example 121]	–	–	45	44	–
O=C(c1nn2c(c1-c1ccccn1)COCC2)N1CCC[C@H]1Cn1cc(-c2ccc(F)cn2)cn1 [Example 214]	–	–	32	66	–
O=C(c1nn2c(c1-c1ccccn1)COCC2)N1CCC[C@H]1Cn1ccc(-c2ccc(F)cn2)n1 [Example 212]	35	7	–	–	OX2R, % Inh. @ 1 uM [2]: 46%; OX1R, % Inh. @ 1 uM [3]: 96%
O=C(c1c(-c2ccccc2)nc2cc(C(F)(F)F)ccn12)N1CCC[C@H]1Cn1cc(-c2ccc(F)cn2)cn1 [Example 81]	400	84	63	58	IC50 [2]: 70 nM; Kb [2]: 12 nM
O=C(c1nc2ccccn2c1-c1ccccc1)N1CCC[C@H]1COc1ccc(C(F)(F)F)cn1 [Example 124]	5	1	36	100	–
O=C(c1c(-c2ccccc2)nc2cnccn12)N1CCC[C@H]1CNc1ccc(C(F)(F)F)cn1 [Example 36]	–	–	14.7	53.7	–
O=C(c1c(-c2ccccc2F)nn2c1COCC2)N1[C@H](Cn2ccc(-c3ccc(F)cc3)n2)C[C@@H]2C[C@@H]21 [Example 96]	–	–	22	44	–
O=C(c1c(-c2ccccc2)nc2cc(C(F)(F)F)ccn12)N1[C@H](Cn2ccc(-c3ccc(F)cn3)n2)C[C@@H]2C[C@@H]21 [Example 110]	280	60	42	69	–

Reference: patent US20260070922A1, “PYRAZOLE AND IMIDAZOLE DERIVATIVES AS DUAL OREXIN AND KAPPA-OPIOID RECEPTORS MODULATORS COMPOSITION, METHODS FOR TREATING NEUROLOGICAL AND PSYCHIATRIC DISORDERS” (HAGER BIOSCIENCES, LLC, priority 2022, published 2026)
